Here are results for 4 molecules from US6670446B1, “N1 modified glycopeptides” (Eli Lilly and Company, priority 1998, dated 2003).

Structures are written as SMILES.

Format in all cases: cell-based
The test system of assay [1] is Enterococcus faecalis 276. Nature of the assay: MIC, standard broth micro-dilution assay, EF 276. The method, then:
(§1) The antibacterial efficacy of the present compounds is illustrated by Table III. The minimal inhibitory concentrations (MICs) were determined using a standard broth micro-dilution assay.

Assay [2] concerns Staphylococcus aureus X400. Nature of the assay: MIC, standard broth micro-dilution assay, SA X400. As to the method: as §1
Assay [3] deals with Enterococcus gallinarum 245. Nature of the assay: MIC, standard broth micro-dilution assay, EG 245. As to the method: as §1
(In broth dilution the organism is exposed to a series of concentrations in liquid medium.)

Assay [4] has as its system Staphylococcus aureus 489. Nature of the assay: MIC, standard broth micro-dilution assay, SA 489. As to the method:
as §1

The subject of assay [5] is Staphylococcus aureus 447. Nature of the assay: MIC, standard broth micro-dilution assay, SA 447. The method, then: as §1
Assay [6] relates to Staphylococcus aureus X778. Nature of the assay: MIC, standard broth micro-dilution assay, SA X778. The method, then: as §1
In assay [7] the test system is Staphylococcus aureus 446. Nature of the assay: MIC, standard broth micro-dilution assay, SA 446. The method, then: as §1
Assay [8] concerns Enterococcus faecium 180-1. Nature of the assay: MIC, standard broth micro-dilution assay, EF 180-1. The method, then: as §1
Assay [9] deals with Sensitive Enterococcus faecium and faecalis. Nature of the assay: MIC, standard broth micro-dilution assay, Sensitive. The settings on record: geometric mean of 4-6 isolates. The method, then: as §1
Assay [10] deals with Staphylococcus haemolyticus 415. Nature of the assay: MIC, standard broth micro-dilution assay, SH 415. The method, then:
as §1

Assay [11] relates to Staphylococcus haemolyticus 105. Nature of the assay: MIC, standard broth micro-dilution assay, SH 105. As to the method:
as §1

Assay [12] concerns Staphylococcus epidermidis 270. Nature of the assay: MIC, standard broth micro-dilution assay, SE 270. As to the method:
as §1

Assay [13] has as its system Staphylococcus aureus S13E. As to the method: as §1
Assay [14] has as its system Staphylococcus aureus SA1199. Nature of the assay: MIC, standard broth micro-dilution assay, SA 1199. As to the method: as §1
Assay [15] relates to Resistant Enterococcus faecium and faecalis. Nature of the assay: MIC, standard broth micro-dilution assay, Resistant. The settings on record: geometric mean of 4-6 isolates. The method, then: as §1
Another assay has as its system Escherichia coli EC14. Nature of the assay: MIC, standard broth micro-dilution assay, EC 14. The method, then:
as §1

Assay [16] has as its system Haemophilus influenzae RD. Nature of the assay: MIC, standard broth micro-dilution assay, HFRD. As to the method: as §1
Assay [17] has as its system Staphylococcus aureus 491. Nature of the assay: MIC, standard broth micro-dilution assay, SA 491. As to the method: as §1
Assay [18] concerns Enterococcus faecalis 2041. Nature of the assay: MIC, standard broth micro-dilution assay, EF 2041. The method, then: as §1
In a further assay the test system is Enterococcus faecium 180. Nature of the assay: MIC, standard broth micro-dilution assay, EF 180. As to the method: as §1
The subject of assay [19] is Staphylococcus aureus SA1199A. Nature of the assay: MIC, standard broth micro-dilution assay, SA 1199A. As to the method:
as §1

As for `CC(C)CC(NC(=O)OC(C)(C)C)C(=O)NC1C(=O)NC(CC(N)=O)C(=O)NC2C(=O)NC3C(=O)NC(C(=O)NC(C(=O)O)c4cc(O)cc(O)c4-c4cc3ccc4O)C(OC3CC(C)(N)C(O)C(C)O3)c3ccc(c(Cl)c3)Oc3cc2cc(c3OC2OC(CO)C(O)C(O)C2O)Oc2ccc(cc2Cl)C1O` [Example 36, N^1-(N-BOC-D-leucine) derivative of desepivancosaminyl desleucylA82846B], in assay [1], the “minimal inhibitory concentration (MIC), EF 276” value is on record as 4. The “minimal inhibitory concentration (MIC), SA X400” value in [2] stood at 4. For the same molecule, the “minimal inhibitory concentration (MIC), EG 245” value in [3] was found to be 16. Also, the “minimal inhibitory concentration (MIC), SA 489” value in [4] is listed as 4. For the same molecule, the “minimal inhibitory concentration (MIC), SA 447” value in assay [5] was determined as 16. Besides, in assay [6], the “minimal inhibitory concentration (MIC), SA X778” value turned out to be 4. Moreover, in assay [7], the “minimal inhibitory concentration (MIC), SA 446” value was 8. For the same molecule, in assay [8], the “minimal inhibitory concentration (MIC), EF 180-1” value was found to be 4. Moreover, the “minimal inhibitory concentration (MIC), Sensitive” value in [9] came out at 16. For the same molecule, the “minimal inhibitory concentration (MIC), SH 415” value in [10] is given as more than 64. The “minimal inhibitory concentration (MIC), SH 105” value in assay [11] was determined as 2. For the same molecule, in assay [12], the “minimal inhibitory concentration (MIC), SE 270” value is recorded as 16. For the same molecule, in [13], the “minimal inhibitory concentration (MIC), SA S13E” value amounted to 4. In [14], the “minimal inhibitory concentration (MIC), SA 1199” value is on record as 4. Further, in assay [15], the “minimal inhibitory concentration (MIC), Resistant” value was more than 128. Also, in the assay on Escherichia coli EC14, the “minimal inhibitory concentration (MIC), EC 14” value is more than 64. Besides, in assay [16], the “minimal inhibitory concentration (MIC), HFRD” value is more than 64. For the same molecule, the “minimal inhibitory concentration (MIC), SA 491” value in assay [17] came to 2. For the same molecule, in [18], the “minimal inhibitory concentration (MIC), EF 2041” value came out at 8. In addition, the “minimal inhibitory concentration (MIC), EF 180” value in the assay on Enterococcus faecium 180 is more than 64. Also, in assay [19], the “minimal inhibitory concentration (MIC), SA 1199A” value amounted to 4.

Consider `CC(C)CC(NCc1ccc(-c2ccccc2)cc1)C(=O)NC1C(=O)NC(CC(N)=O)C(=O)NC2C(=O)NC3C(=O)NC(C(=O)NC(C(=O)O)c4cc(O)cc(O)c4-c4cc3ccc4O)C(OC3CC(C)(N)C(O)C(C)O3)c3ccc(c(Cl)c3)Oc3cc2cc(c3OC2OC(CO)C(O)C(O)C2OC2CC(C)(N)C(O)C(C)O2)Oc2ccc(cc2Cl)C1O` [Example 34, N^1-[N-(p-phenylbenzyl)-D-leucine] derivative of desleucylA82846B], for which the “minimal inhibitory concentration (MIC), EF 276” value in assay [1] is on record as “≦.06”. For the same molecule, the “minimal inhibitory concentration (MIC), SA X400” value in assay [2] is on record as “≦.06”. Besides, the “minimal inhibitory concentration (MIC), EG 245” value in assay [3] is recorded as “≦.06”. Moreover, in assay [4], the “minimal inhibitory concentration (MIC), SA 489” value is “≦.06”. In addition, in [5], the “minimal inhibitory concentration (MIC), SA 447” value turned out to be 0.125. Moreover, in assay [6], the “minimal inhibitory concentration (MIC), SA X778” value is reported as “≦.06”. In addition, the “minimal inhibitory concentration (MIC), SA 446” value in [7] was found to be 0.125. In addition, the “minimal inhibitory concentration (MIC), EF 180-1” value in assay [8] is “≦.06”. The “minimal inhibitory concentration (MIC), Sensitive” value in assay [9] was found to be 0.44. Also, the “minimal inhibitory concentration (MIC), SH 415” value in assay [10] turned out to be 4. Also, in assay [11], the “minimal inhibitory concentration (MIC), SH 105” value is “≦.06”. The “minimal inhibitory concentration (MIC), SE 270” value in assay [12] amounted to 0.25. The “minimal inhibitory concentration (MIC), SA S13E” value in assay [13] is “≦.06”. In assay [14], the “minimal inhibitory concentration (MIC), SA 1199” value is recorded as 0.125. For the same molecule, in assay [15], the “minimal inhibitory concentration (MIC), Resistant” value came out at 38. For the same molecule, in the assay on Escherichia coli EC14, the “minimal inhibitory concentration (MIC), EC 14” value is more than 64. For the same molecule, the “minimal inhibitory concentration (MIC), HFRD” value in assay [16] was 64. Also, the “minimal inhibitory concentration (MIC), SA 491” value in [17] was “≦.06”. Further, the “minimal inhibitory concentration (MIC), EF 2041” value in assay [18] is given as 0.25. Besides, the “minimal inhibitory concentration (MIC), EF 180” value with Enterococcus faecium 180 stood at 2. Besides, the “minimal inhibitory concentration (MIC), SA 1199A” value in assay [19] was “≦.06”.

On to `CC1OC(OC2c3ccc(c(Cl)c3)Oc3cc4cc(c3OC3OC(CO)C(O)C(O)C3OC3CC(C)(NCc5ccc(-c6ccccc6)cc5)C(O)C(C)O3)Oc3ccc(cc3Cl)C(O)C(NC(=O)C3CCCN3)C(=O)NC(CC(N)=O)C(=O)NC4C(=O)NC3C(=O)NC2C(=O)NC(C(=O)O)c2cc(O)cc(O)c2-c2cc3ccc2O)CC(C)(N)C1O` [Example 32, N^1-L-proline derivative of N^DISACC-(p-phenylbenzyl)desleucylA82846B], for which the “minimal inhibitory concentration (MIC), EF 276” value in assay [1] worked out at 2. Besides, the “minimal inhibitory concentration (MIC), SA X400” value in assay [2] is on record as 2. The “minimal inhibitory concentration (MIC), EG 245” value in assay [3] worked out at 0.5. Moreover, the “minimal inhibitory concentration (MIC), SA 489” value in assay [4] is 1. Besides, the “minimal inhibitory concentration (MIC), SA 447” value in assay [5] was determined as 1. In addition, the “minimal inhibitory concentration (MIC), SA X778” value in assay [6] is 0.5. Also, the “minimal inhibitory concentration (MIC), SA 446” value in assay [7] is given as 1. Besides, the “minimal inhibitory concentration (MIC), EF 180-1” value in assay [8] stood at 0.125. Also, the “minimal inhibitory concentration (MIC), Sensitive” value in assay [9] is 0.76. Besides, in assay [10], the “minimal inhibitory concentration (MIC), SH 415” value worked out at 0.5. For the same molecule, the “minimal inhibitory concentration (MIC), SH 105” value in [11] is 0.125. For the same molecule, the “minimal inhibitory concentration (MIC), SE 270” value in [12] stood at 0.125. Also, the “minimal inhibitory concentration (MIC), SA S13E” value in assay [13] is listed as 0.25. Moreover, in assay [14], the “minimal inhibitory concentration (MIC), SA 1199” value turned out to be 0.25. Also, in assay [15], the “minimal inhibitory concentration (MIC), Resistant” value came out at 16. Further, the “minimal inhibitory concentration (MIC), EC 14” value in the assay on Escherichia coli EC14 is reported as more than 64. For the same molecule, in assay [16], the “minimal inhibitory concentration (MIC), HFRD” value is on record as more than 64. Besides, the “minimal inhibitory concentration (MIC), SA 491” value in [17] worked out at 0.125. Further, in assay [18], the “minimal inhibitory concentration (MIC), EF 2041” value turned out to be 1. For the same molecule, the “minimal inhibitory concentration (MIC), EF 180” value in the assay with Enterococcus faecium 180 came to 2. Besides, the “minimal inhibitory concentration (MIC), SA 1199A” value in assay [19] is on record as “≦.06”.

On to `CC1OC(OC2c3ccc(c(Cl)c3)Oc3cc4cc(c3OC3OC(CO)C(O)C(O)C3OC3CC(C)(NCc5ccc(-c6ccccc6)cc5)C(O)C(C)O3)Oc3ccc(cc3Cl)C(O)C(NC(=O)c3ccc(-c5ccccc5)cc3)C(=O)NC(CC(N)=O)C(=O)NC4C(=O)NC3C(=O)NC2C(=O)NC(C(=O)O)c2cc(O)cc(O)c2-c2cc3ccc2O)CC(C)(N)C1O` (stereo not drawn) [Example 6, N^1-(p-phenylbenzoyl)-N^DISACC-(p-phenylbenzyl)desleucylA82846B], for which, in [1], the “minimal inhibitory concentration (MIC), EF 276” value was 2. Besides, in [2], the “minimal inhibitory concentration (MIC), SA X400” value is given as 1. The “minimal inhibitory concentration (MIC), EG 245” value in [3] was found to be 1. The “minimal inhibitory concentration (MIC), SA 489” value in assay [4] is given as 2. In [5], the “minimal inhibitory concentration (MIC), SA 447” value amounted to 2. Moreover, the “minimal inhibitory concentration (MIC), SA X778” value in assay [6] was determined as 0.5. The “minimal inhibitory concentration (MIC), SA 446” value in assay [7] was 1. Also, the “minimal inhibitory concentration (MIC), EF 180-1” value in [8] is listed as 0.25. Further, the “minimal inhibitory concentration (MIC), Sensitive” value in assay [9] was determined as 3.5. The “minimal inhibitory concentration (MIC), SH 415” value in assay [10] came out at 2. Moreover, in assay [11], the “minimal inhibitory concentration (MIC), SH 105” value stood at 0.5. Further, in [12], the “minimal inhibitory concentration (MIC), SE 270” value is 0.5. Further, the “minimal inhibitory concentration (MIC), SA S13E” value in assay [13] is 1. Also, the “minimal inhibitory concentration (MIC), SA 1199” value in assay [14] came to 0.5. Besides, the “minimal inhibitory concentration (MIC), Resistant” value in assay [15] worked out at 38. Also, in the assay on Escherichia coli EC14, the “minimal inhibitory concentration (MIC), EC 14” value is on record as more than 64. The “minimal inhibitory concentration (MIC), HFRD” value in [16] is recorded as more than 64. Further, the “minimal inhibitory concentration (MIC), SA 491” value in [17] amounted to 0.5. Besides, in assay [18], the “minimal inhibitory concentration (MIC), EF 2041” value came to 2. For the same molecule, in the assay with Enterococcus faecium 180, the “minimal inhibitory concentration (MIC), EF 180” value amounted to 2. The “minimal inhibitory concentration (MIC), SA 1199A” value in assay [19] amounted to 0.125.
